Reference: patent publication US5484911A, “Nucleoside 5'-diphosphate conjugates of ether lipids” (Health Research, Inc., priority 1993, dated 1996)
Like-named read-outs stand apart in the source and are kept apart here.

Tests used:
HIV-1 = assay: microbe, parasite or virus in culture; format: cell-based
Source text: (§1) FIG. 3. Anti-HIV activity of AZTDP-DL-PTBA from the National Cancer Institute Developmental Therapeutics Program In-Vitro Testing Results; NSC 648540-S/1; Plate 5440; Lab 9N; SSPL:129N; Primary Screen Assay; Test Date, Jan. 21, 1992; Solubility Ind.: 1; Report Date, Apr. 27, 1992; Cell Line, CEM-IW; Solvent: Saline<0.9% (MEDIA).
as §1, with “4.” for “3.”, “AZddUDP-DL-PTBA” for “AZTDP-DL-PTBA”, “NSC: 648541-T/1;” for “NSC 648540-S/1;”, “5466;” for “5440;”, “SSPL: 129N;” for “SSPL:129N;”, “Line:” for “Line,”
(§2) FIG. 5. Anti-HIV activity of ddCDP-DL-PTBA from the National Cancer Institute Developmental Therapeutic Program In-Vitro Testing Results; NSC: D- 652872-A/1; Plate 24; Lab 9N; Primary Screen Assay; Test Date, Jul. 23, 1992; Solubility Ind.: 1; Report Date: Aug. 7, 1992; Cell Line: CEM-IW; Solvent: Saline<0.9% (MEDIA).
(§3) FIG. 6. Anti-HIV activity of AZTDP-DL-PMA from the National Cancer Institute Developmental Therapeutics Program In-Vitro Testing Results; NSC: D- 652873-C/1; Plate 24; Lab 9N; SSPL: 129N; Primary Screen Assay; Test Date, Jul. 23, 1992; Solubility Ind.: 1; Report Date, Sep. 11, 1992; Cell Line: CEM-IW; Solvent: Saline<0.9% (MEDIA).
Anti-HIV evaluation for the compounds was performed at the National Cancer Institute, National Institute of Health and is presented in FIGS. 3-6.
(§4) The procedure is designed to detect agents acting at any stage of the virus reproductive cycle (Weislow, et al., J. Natl. Cancer Inst. 81, 577, 1989). The assay basically involves the killing of T4 lymphocytes by HIV. Small amounts of HIV are added to cells, and a complete cycle of virus reproduction is necessary to obtain the required cell killing. Agents that interact with virions, cells, or virus gene-products to interfere with viral activities will protect cells from cytolysis. Compounds that degenerate or are rapidly metabolized in the culture conditions may not show activity in this screen. All tests are compared with at least one positive (e.g., AZT-treated) control done at the same time under identical conditions.
(§5) Compound was dissolved in DMSO then diluted 1:100 in cell culture medium before preparing serial half-log10 dilutions. T4 lymphocytes (CEM cell line) were added and after a brief interval HIV-1 was added, resulting in a 1:200 final dilution of the compound. Uninfected cells with the compound served as a toxicity control, and infected and uninfected without the compound served as basic controls. Cultures were incubated at 37° C. in a 5% CO2 atmosphere for 6 days. The tetrazolium salt, XTT, was added to the wells, and cultures were incubated to allow formazan color development by viable cells. Individual wells were analyzed spectrophotometrically to quantitate formazan production, and in addition were viewed microscopically for detection of viable cells and confirmation of protective activity. Drug-treated virus-infected cells were compared with drug-treated noninfected cells and with other appropriate controls (untreated infected and untreated noninfected cells, drug-containing wells without cells, etc.) on the same plate. Data were reviewed in comparison with other tests done at the same time and a determination about activity was made.

[1] = Cytotoxicity to uninfected CEM cells (toxicity control of the anti-HIV assay); format: cell-based; details: human
Source text: as §1
as §1, with “4.” for “3.”, “AZddUDP-DL-PTBA” for “AZTDP-DL-PTBA”, “NSC: 648541-T/1;” for “NSC 648540-S/1;”, “5466;” for “5440;”, “SSPL: 129N;” for “SSPL:129N;”, “Line:” for “Line,”
as §2, §3, §4, §5

L1210 lymphoid leukemia = assay: In vivo test against i.p. implanted L1210 lymphoid leukemia in DBA/2J mice
Description: AZTDP-DL-PTBA was also tested for in vivo cytotoxicity against i.p. implanted L1210 lymphoid leukemia (10^6 cells) in DBA/2J mice.

in vivo = assay: in vivo; parameters: species or system Female NIH-Swiss mice; details: mouse, ip, 394 mg/kg
Description: FIG. 7. Mouse serum concentration of AZT following administration of AZT or AZTDP-DL-PTBA Female NIH-Swiss mice weighing 25-30 g were administered i.p. with AZT (100 mg/kg) or AZTDP-DL-PTBA (394 mg/kg, equivalent to 100 mg/kg AZT). Three mice were sacrificed at the designated time (up to 24 hr) and AZT in the serum was analyzed by a HPLC method.
Female NIH-Swiss mice weighing 25-30 g were administered intraperitoneally (i.p.) with 394 mg/kg of AZTDP-DL-PTBA (equivalent to 100 mg/kg AZT). Three mice were sacrificed at the designated time (up to 24 hours) and AZT in the serum was analyzed by an HPLC method. […] The intact conjugate level in the serum was unable to be checked by the HPLC method.

Solubility in water = format: physicochemical
Description: Solubility of AZTDP-DL-PTBA in water is only 0.58 mM. Thus, the compounds in the present invention were formulated in a micellar solution by sonication for the biological testings such as anti-HIV screenings. The compound was suspended in sterile water and then sonicated using a Branson Sonifier Cell Disruptor 200 at control 2-3 for 5 min (temp 20°-60° C.). The solution was sterile-filtered through a 0.22 μm membrane filter into a sterile receiving container under a laminar flow cabinet. The compound was existed as micelles and the micellar solution was stored in a refrigerator.

Compound: CCCCCCCCCCCCCCCCCCSCC(COP(=O)(O)OP(=O)(O)OC[C@H]1O[C@@H](n2cc(C)c(=O)[nH]c2=O)C[C@@H]1N=[N+]=[N-])OC(=O)CCCCCCCCCCCCCCC (mixture of isomers) [AZTDP-DL-PTBA]
- concentration at which protection was lost (HIV-1; HIV-infected CEM cells): 180 µM
- viability at 0.58 µM (HIV-1; Human immunodeficiency virus 1, CCRF-CEM, at as low as 5.80×10^-7 M, read-out: protected HIV-infected CEM cells): 80%
- viability at 180 µM (HIV-1; Human immunodeficiency virus 1, CCRF-CEM, dose 1.80 × 10^-4 Molar (Tables 1, 2), read-out: INFECTED RESPONSE Percent of Control): 1.53%
- viability at 18 µM (HIV-1; Human immunodeficiency virus 1, CCRF-CEM, dose 1.80 × 10^-5 Molar (Tables 1, 2), read-out: INFECTED RESPONSE Percent of Control): 110%
- viability at 1.8 µM (HIV-1; Human immunodeficiency virus 1, CCRF-CEM, dose 1.80 × 10^-6 Molar (Tables 1, 2), read-out: INFECTED RESPONSE Percent of Control): 95.6%
- viability at 580 µM (HIV-1; Human immunodeficiency virus 1, CCRF-CEM, dose 5.80 × 10^-4 Molar (Tables 1, 2), read-out: INFECTED RESPONSE Percent of Control): 0.57%
- viability at 58 µM (HIV-1; Human immunodeficiency virus 1, CCRF-CEM, dose 5.80 × 10^-5 Molar (Tables 1, 2), read-out: INFECTED RESPONSE Percent of Control): 122%
- viability at 5.8 µM (HIV-1; Human immunodeficiency virus 1, CCRF-CEM, dose 5.80 × 10^-6 Molar (Tables 1, 2), read-out: INFECTED RESPONSE Percent of Control): 98.1%
- viability at 0.58 µM (HIV-1; Human immunodeficiency virus 1, CCRF-CEM, dose 5.80 × 10^-7 Molar (Tables 1, 2), read-out: INFECTED RESPONSE Percent of Control): 81.6%
- Conclusion (HIV-1; NCI screen conclusion, Tables 1-4): CONFIRMED ACTIVE
- conclusion / reported as anti-HIV drug (HIV-1; NCI screening results): active
- in vitro anti-HIV activity (HIV-1; result in words): strong in vitro anti-HIV activity
- MCC ([1]; cem cells, read-out: concentration at which the compound started to show the cytotoxicity): 100 µM
- viability at 180 µM ([1]; uninfected cem cells, dose 1.80 × 10^-4 Molar (Tables 1, 2), read-out: UNINFECTED RESPONSE Percent of Control): 0.9%
- viability at 18 µM ([1]; uninfected cem cells, dose 1.80 × 10^-5 Molar (Tables 1, 2), read-out: UNINFECTED RESPONSE Percent of Control): 106%
- viability at 1.8 µM ([1]; uninfected cem cells, dose 1.80 × 10^-6 Molar (Tables 1, 2), read-out: UNINFECTED RESPONSE Percent of Control): 98.7%
- viability at 580 µM ([1]; uninfected cem cells, dose 5.80 × 10^-4 Molar (Tables 1, 2), read-out: UNINFECTED RESPONSE Percent of Control): -0.54%
- viability at 58 µM ([1]; uninfected cem cells, dose 5.80 × 10^-5 Molar (Tables 1, 2), read-out: UNINFECTED RESPONSE Percent of Control): 113%
- viability at 5.8 µM ([1]; uninfected cem cells, dose 5.80 × 10^-6 Molar (Tables 1, 2), read-out: UNINFECTED RESPONSE Percent of Control): 95.9%
- viability at 0.58 µM ([1]; uninfected cem cells, dose 5.80 × 10^-7 Molar (Tables 1, 2), read-out: UNINFECTED RESPONSE Percent of Control): 97%
- CC50 ([1]; CEM cells, read-out: cytotoxicity (IC50)): 110 µM
- CC50 at 144 h ([1]; uninfected CEM-IW cells, 6 days, XTT, Tables 1-4, read-out: 1C50(Molar) (cytotoxicity)): 110 µM
- % ILS (increase in life span) (L1210 lymphoid leukemia; 100-300 mg (95-285 μmole)/kg, L1210 10^6 cells i.p.): 0%
- Toxicity (L1210 lymphoid leukemia; 100-300 mg/kg, leukemic mice): Toxicity as reflected in weight loss was observed
- half-life (in vivo): 7.85 h
- solubility (Solubility in water): 580 µM
